Reference: patent publication US5798375A, “Treatment of arteriosclerosis and xanthoma” (Sankyo Company, Limited, priority 1995, dated 1998)

Assays:
WHHL rabbits [1] = test: Example 2: incidence and degree of xanthoma of the four legs; assay type: in vivo, Male WHHL rabbits; set-up: Frequency of massive xanthoma: unit not given here
Protocol: (§1) Each test compound was administered for eight months to the rabbits in the form of an aqueous suspension (0.5% carboxymethylcellulose added). In the control group, a 0.5% carboxymethylcellulose solution only was administered.
The incidence and the degree of xanthoma of the four legs were measured.

[2] = Example 2: serum cholesterol in WHHL rabbits; assay type: in vivo, Male WHHL rabbits; settings: Groups C and D (pioglitazone 20 mg/kg; Compound A 10 mg/kg)
Protocol: as §1

WHHL rabbits [3] = test: Example 2: percentage area covered by lesions, aortic arch and whole aorta; assay type: in vivo, Male WHHL rabbits; set-up: Lesion Area, Aortic Arch, percentage against the control group / Lesion Area, Total Aorta, percentage against the control group: concentration or dose not given beside the values; settings: oral, eight months
Protocol: as §1
The values actually measured are represented by the mean value plus or minus standard error. The numbers in parentheses represent the percentage lesion area against the control group.
*p<0.05, **p<0.01; significant difference against the control group under the [Mann-Whitney's U-Test A significant difference (p<0.05) was observed between Groups B and F, between Groups C and E and between Groups D and F at the aortic arch, and between Groups C and E over the total aorta.

WHHL rabbits [4] = test: Example 2: aortic cholesterol content; assay type: in vivo, Male WHHL rabbits
Protocol: as §1
The aortic cholesterol content was measured The tunica media and tunica intima at the aortic arch and at the thoracic and abdominal aorta were peeled away with tweezers and cut into pieces. The pieces were extracted with a 2:1 by volume mixture of chloroform and methanol.
The chloroform phase was separated and evaporated to dryness and the residue was dissolved in isopropanol. The total cholesterol and the free cholesterol were measured by a conventional enzymatic method.
Data are expressed by the mean plus or minus standard error (mg/g tissue). The values in parentheses indicate the percentage against the control. A significant difference against the control group was observed by the unpaired student t-test: […]

WHHL rabbits [5] = test: Example 2: average thickening of intima in aorta; assay type: in vivo, Male WHHL rabbits; set-up: Average thickening of intima, Aortic Arch, percentage against the control group / Average thickening of intima, Total Aorta, percentage against the control group: concentration or dose not given beside the values
Protocol: as §1
The values actually measured are represented as the mean value plus or minus a standard error (μm). The numbers in parentheses represent the percentage intimal thickening against the control group. A significant difference was observed between Groups D and F at the aortic arch, and between Groups C and E and between Groups D and F over the total aorta (p<0.05) under the Mann-Whitney's U-Test.
The average thickening of the intima is calculated by the cross-sectional area of the aortic tunica intima one section from the arch and two sections from the thoracic and abdominal portions, divided by the length of the tunica media.

[6] = system: Male New Zealand white rabbits; test: Example 3: regression of established atherosclerotic lesions in the cholesterol-fed rabbit model; assay type: in vivo; settings: for Rate of lesion area, against the control group: figure in parentheses; for Rate of lesion area: thoracic aorta, two months, mean ± standard error, control 29 ± 20
Protocol: The rabbits were grouped randomly (3-9 animals per group) and the test samples were administered orally for two months, while they were fed with a normolipidaemic diet. […] The results are shown in terms of the percentage of lesion area in the thoracic aorta.

Male Fl b hamsters = test: Example 4: regression of preformed atherosclerosis in hamsters (Oil Red O stained area); assay type: in vivo; settings: for Stained Area ORO: aortic arch, 4 weeks, control 1.82 ± 0.44
Protocol: Synergism of HMG CoA reductase inhibitors and thiazolidinedione insulin sensitizers was examined by another regression model, i.e. the regression of preformed atherosclerosis in hamsters. Male Fl b hamsters (weight about 130 g,) were given a diet containing 0.05% cholesterol for 13 weeks. They were grouped randomly (2-7 animals per group), and then the test samples were administered for 4 weeks while the hamsters were given a normolipidaemic diet. Pravastatin and fluvastatin were mixed with drinking water at the dose of 3 mg/kg and 1.5 mg/kg, respectively, while troglitazone was mixed with the diet at the dose of 30 mg/kg or 100 mg/kg.
In the case of the combination groups, the dosage was 3 mg/kg+30 mg/kg or 3 mg/kg+100 mg/kg for the pravastatin+troglitazone group, and 1.5 mg/kg+30 mg/kg for the fluvastatin+troglitazone group.
Namely, the aortic arch was stained with ORO to prepare en face specimens. The percentage area which was positive to the ORO stain over the whole area was measured to represent the degree of aortic lesion.

WHHL rabbits [7] = test: Example 1: percent lesion area of the aorta in WHHL rabbits; assay type: in vivo; settings: week 32, mean ± standard error, pravastatin 50 mg/kg/day, troglitazone in diet containing 100 mg/kg, * p < 0.05 vs control
Protocol: (§2) WHHL rabbits [2-3 months of age, the Watanabe heritable hyperlipidemic rabbit described in Biochimica et Biophysica Acta, 960, 294-302 (1988)] were randomly assigned to a control group (7 animals, group A), a group receiving pravastatin alone (5 animals, Group B), a group receiving troglitazone alone (7 animals, Group C), and a group receiving a combination of both active substances (6 animals, Group D). Pravastatin was administered orally by gavage at a dose of 50 mg/kg/day once-daily and troglitazone was given in the diet, containing 100 mg/kg of the substance for 32 weeks. The ingested amount was limited to a daily 120 g per rabbit. Blood was withdrawn from the animal immediately before starting the study and 4, 8, 12, 16, 20, 24, 28 and 32 weeks after starting the study and the total cholesterol levels (mg/dl) were determined for each blood sample. The levels are reported as a percentage (%) of the levels measured immediately before starting the study. The animals were sacrificed and necropsied at week 32 to examine (a) the percent lesion area (%) in the total, thoracic or abdominal portion of the aorta; (b) the stenosis (%) of the coronary arteries and (c) the incidence (%) of xanthoma in the digital joints.
(§3) The values actually measured are represented as an average value±standard error in those Tables.

[8] = Example 1: plasma total cholesterol in WHHL rabbits; assay type: in vivo; settings: pravastatin 50 mg/kg/day oral gavage, troglitazone in diet containing 100 mg/kg
Protocol: as §2

WHHL rabbits [9] = test: Example 1: stenosis of the coronary arteries in WHHL rabbits; assay type: in vivo; settings: week 32
Protocol: as §2, §3

WHHL rabbits [10] = test: Example 1: incidence of xanthoma in the digital joints of WHHL rabbits; assay type: in vivo
Protocol: as §2, §3

[11] = oral, eight months, control 100 (14/14), *p < 0.05, **p < 0.01 vs control
[12] = pravastatin 3 mg/kg, fluvastatin 1.5 mg/kg, troglitazone 30 mg/kg alone, combinations

CCc1ccc(CCOc2ccc(CC3SC(=O)NC3=O)cc2)nc1 (centres unmarked) [Pioglitazone, 5-{4-[2-(5-ethylpyridin-2-yl)ethoxy]benzyl}-2,4-thiazolidinedione]
Frequency of massive xanthoma (WHHL rabbits [1]; control 57, *p < 0.05, **p < 0.01 vs control): 68
incidence of xanthoma (WHHL rabbits [1]; forelegs and hindlegs): slightly less frequent incidence of xanthoma
Distribution of severity of lesion: (-) no lesions (WHHL rabbits [1]; number of legs, control 0): 2
Distribution of severity of lesion: (+++) severe lesion (WHHL rabbits [1]; number of legs, control 6): 8
Distribution of severity of lesion: (++) moderate lesion (WHHL rabbits [1]; number of legs, control 10): 11
Distribution of severity of lesion: (+) slight lesion (WHHL rabbits [1]; number of legs, control 12): 7
Incidence of xanthoma, Forelegs (WHHL rabbits [1]; [11]): 100%
Incidence of xanthoma, Hindlegs (WHHL rabbits [1]; [11]): 86%
Incidence of xanthoma, Total (WHHL rabbits [1]; oral, eight months, control 100 (28/28), *p < 0.05, **p < 0.01 vs control): 93%
reduction of the serum cholesterol levels [2]: no reduction
Lesion Area, Aortic Arch, percentage against the control group (WHHL rabbits [3]; number in parentheses): 88%
Lesion Area, Total Aorta, percentage against the control group (WHHL rabbits [3]; number in parentheses): 108%
Lesion Area, Total Aorta (WHHL rabbits [3]; pravastatin 50, pioglitazone 20, Compound A 10 mg/kg, mean ± standard error, *p<0.05, **p<0.01 vs control): 54 ± 8%
Lesion Area, Aortic Arch (WHHL rabbits [3]; pravastatin 50, pioglitazone 20, Compound A 10 mg/kg, mean ± standard error, control 82 ± 5, *p<0.05, **p<0.01 vs control): 72 ± 10%
Cholesterol level of Thoracic and Abdominal Aorta, Esterified (WHHL rabbits [4]; mean ± standard error, control 5.3 ± 1.7): 10.5 ± 3.8 mg/g tissue
Cholesterol Content of Aortic Arch, Esterified (WHHL rabbits [4]; mean ± standard error, control 6.5 ± 1.4, *p < 0.05): 6.6 ± 2.7 mg/g tissue
Cholesterol level of Thoracic and Abdominal Aorta, Free (WHHL rabbits [4]; mean ± standard error, control 14.8 ± 2.3, *p < 0.05 vs control): 23.4 ± 3.8 mg/g tissue
Cholesterol level of Thoracic and Abdominal Aorta, Total (WHHL rabbits [4]; mean ± standard error, control 20.1 ± 2.3, *p < 0.05, **p < 0.02 vs control): 33.9 ± 7.3 mg/g tissue
Cholesterol Content of Aortic Arch, Free (WHHL rabbits [4]; mean ± standard error, control 20.6 ± 2.9): 26.9 ± 2.3 mg/g tissue
Cholesterol Content of Aortic Arch, Esterified, percentage against the control (WHHL rabbits [4]; number in parentheses): 102%
Cholesterol Content of Aortic Arch, Free, percentage against the control (WHHL rabbits [4]; number in parentheses): 131%
Cholesterol Content of Aortic Arch, Total, percentage against the control (WHHL rabbits [4]; number in parentheses): 124%
Cholesterol level of Thoracic and Abdominal Aorta, Esterified, percentage against the control (WHHL rabbits [4]; number in parentheses): 198%
Cholesterol level of Thoracic and Abdominal Aorta, Free, percentage against the control (WHHL rabbits [4]; number in parentheses): 158%
Cholesterol level of Thoracic and Abdominal Aorta, Total, percentage against the control (WHHL rabbits [4]; number in parentheses): 169%
suppression of intimal thickening (WHHL rabbits [5]; combinations compared with Groups C and D): no suppression of hypertrophy
Average thickening of intima, Aortic Arch, percentage against the control group (WHHL rabbits [5]; number in parentheses): 103%
Average thickening of intima, Total Aorta, percentage against the control group (WHHL rabbits [5]; number in parentheses): 115%
Average thickening of intima in aorta, Total Aorta (WHHL rabbits [5]; oral, eight months, pravastatin 50, pioglitazone 20, Compound A 10 mg/kg, mean ± standard error, control 154 ± 33): 177 ± 26 μm
Average thickening of intima in aorta, Aortic Arch (WHHL rabbits [5]; oral, eight months, pravastatin 50, pioglitazone 20, Compound A 10 mg/kg, mean ± standard error, control 237 ± 63): 245 ± 37 μm

CC(C)n1c(/C=C/C(O)CC(O)CC(=O)O)c(-c2ccc(F)cc2)c2ccccc21 (centres unmarked) [Fluvastatin]
Rate of lesion area, against the control group ([6]; 0.08 mg/kg (as printed in Table 9)): 93
Rate of lesion area, against the control group ([6]; 1.5 mg/kg): 134
Rate of lesion area ([6]; 0.08 mg/kg (as printed in Table 9) oral): 27 ± 9%
Rate of lesion area ([6]; 1.5 mg/kg oral): 39 ± 16%
Stained Area, % of Control (Male Fl b hamsters; 1.5 mg/kg): 96%
Stained Area ORO (Male Fl b hamsters; 1.5 mg/kg in drinking water): 1.74 ± 0.49%
regression of aortic lesions (Male Fl b hamsters; [12]): no regression of aortic lesions

Cc1c(C)c2c(c(C)c1O)CCC(C)(COc1ccc(CC3SC(=O)NC3=O)cc1)O2 (centres unmarked) [Troglitazone, 5-{4-[(6-hydroxy-2,5,7,8-tetramethyl-chroman-2-yl)methoxy]benzyl}-2,4-thiazolidinedione]
Rate of lesion area, against the control group ([6]; 10 mg/kg): 79
Rate of lesion area ([6]; 10 mg/kg oral): 23 ± 7%
Lesion area, Abdominal aorta (WHHL rabbits [7]; control 29.9 ± 4.4): 27.6 ± 7.0%
Lesion Area, Total Aorta (WHHL rabbits [7]; control 65.7 ± 3.9): 51.7 ± 7.7%
Lesion area, Thoracic aorta (WHHL rabbits [7]; control 79.3 ± 5.4): 57.9 ± 9.9%
total cholesterol level, % of level before starting the study ([8]; week 4): 88%
total cholesterol level, % of level before starting the study ([8]; week 8): 89%
total cholesterol level, % of level before starting the study ([8]; week 12): 78%
total cholesterol level, % of level before starting the study ([8]; week 16): 83%
total cholesterol level, % of level before starting the study ([8]; week 20): 72%
total cholesterol level, % of level before starting the study ([8]; week 24): 73%
total cholesterol level, % of level before starting the study ([8]; week 28): 77%
total cholesterol level, % of level before starting the study ([8]; week 32): 76%
Coronary stenosis, RCA (right coronary artery) (WHHL rabbits [9]; control 13): 7%
Coronary stenosis, LAD (left anterior descending artery) (WHHL rabbits [9]; control 24): 11%
Coronary stenosis, LSP (left septal artery) (WHHL rabbits [9]; control 40): 31%
Coronary stenosis, LCX (left circumflex artery) (WHHL rabbits [9]; control 47): 39%
Coronary stenosis, MLC (main left coronary artery) (WHHL rabbits [9]; control 61): 59%
Coronary stenosis, MRC (main right coronary artery) (WHHL rabbits [9]; control 79): 83%
Incidence of xanthoma, Foreleg (WHHL rabbits [10]; week 32, control 100 (14/14)): 86%
Incidence of xanthoma, Hind leg (WHHL rabbits [10]; week 32, control 100 (14/14)): 29%
Incidence of xanthoma, Total (WHHL rabbits [10]; week 32, control 100 (28/28)): 57%
Stained Area, % of Control (Male Fl b hamsters; 30 mg/kg): 109%
Stained Area, % of Control (Male Fl b hamsters; 100 mg/kg): 58%
Stained Area ORO (Male Fl b hamsters; 30 mg/kg in diet): 1.99 ± 0.40%
Stained Area ORO (Male Fl b hamsters; 100 mg/kg in diet): 1.05 ± 0.64%
regression of aortic lesions (Male Fl b hamsters; [12]): no regression of aortic lesions
regression of aortic lesions (Male Fl b hamsters; troglitazone alone, 100 mg/kg): regression was observed
